Results reported in patent publication US9981959B2, “Thiazolyl and oxazolyl urea, thiourea, guanidine and cyanoguanidine compounds as TrkA kinase inhibitors” (Array BioPharma Inc., priority 2012, dated 2018).

Experiments:
Test in all cases: KinaseProfiler off-target kinase profiling
Type in all cases: biochemical
Conditions in all cases: 10 μM, ATP near Km
CK1gamma2 = biological target: T1, CK1gamma2 (Homo sapiens, UniProt P78368)
T1 construct: purchased Millipore, Inc. (KinaseProfiler service)
Protocol: (§1) A representative compound of the invention (Example 2) was tested for off-target kinase activity at a concentration of 10 μM by Millipore, Inc. in their KinaseProfiler™ service against all the kinases available in their full kinase panel. The compound was run in duplicate at a concentration of ATP near the Km for each individual kinase according to Millipore's specifications. The results are shown in Table B. Data are reported as percent of control (POC) and are the average of the two replicates.

CDK5/p25 = biological target: T2, CDK5/p25 (Homo sapiens, UniProt Q00535)
T2 construct: purchased Millipore, Inc. (KinaseProfiler service)
Protocol: as §1

PKCbetaII = biological target: T3, PKCbetaII (Homo sapiens, UniProt P05771)
T3 construct: purchased Millipore, Inc. (KinaseProfiler service)
Protocol: as §1

TSSK1 = biological target: T4, TSSK1 (Homo sapiens, UniProt Q9BXA7)
T4 construct: purchased Millipore, Inc. (KinaseProfiler service)
Protocol: as §1

FGFR3 = biological target: T5, FGFR3 (Homo sapiens, UniProt P22607)
T5 construct: purchased Millipore, Inc. (KinaseProfiler service)
Protocol: as §1

TNK2 = biological target: T6, TNK2 (Homo sapiens, UniProt Q07912)
T6 construct: purchased Millipore, Inc. (KinaseProfiler service)
Protocol: as §1

DAPK2 = biological target: T7, DAPK2 (Homo sapiens, UniProt Q9UIK4)
T7 construct: purchased Millipore, Inc. (KinaseProfiler service)
Protocol: as §1

TAK1 = biological target: T8, TAK1 (Homo sapiens, UniProt O43318)
T8 construct: purchased Millipore, Inc. (KinaseProfiler service)
Protocol: as §1

Lyn = biological target: T9, Lyn (Homo sapiens, UniProt P07948)
T9 construct: purchased Millipore, Inc. (KinaseProfiler service)
Protocol: as §1

PKCiota = biological target: T10, PKCiota (Homo sapiens, UniProt P41743)
T10 construct: purchased Millipore, Inc. (KinaseProfiler service)
Protocol: as §1

EphA2 = biological target: T11, EphA2 (Homo sapiens, UniProt P29317)
T11 construct: purchased Millipore, Inc. (KinaseProfiler service)
Protocol: as §1

ERK1 = biological target: T12, ERK1 (Homo sapiens, UniProt P27361)
T12 construct: purchased Millipore, Inc. (KinaseProfiler service)
Protocol: as §1

AMPK(A1/B1/G1) = biological target: T13, AMPK(A1/B1/G1) (Homo sapiens, UniProt Q13131)
T13 construct: purchased Millipore (KinaseProfiler service)
Protocol: as §1

HIPK3 = biological target: T14, HIPK3 (Homo sapiens, UniProt Q9H422)
T14 construct: purchased Millipore, Inc. (KinaseProfiler service)
Protocol: as §1

MKNK2 = biological target: T15, MKNK2 (Homo sapiens, UniProt Q9HBH9)
T15 construct: purchased Millipore, Inc. (KinaseProfiler service)
Protocol: as §1

JNK1alpha1 = biological target: T16, JNK1alpha1 (Homo sapiens, UniProt P45983)
T16 construct: purchased Millipore, Inc. (KinaseProfiler service)
Protocol: as §1

PTK6 = biological target: T17, PTK6 (Homo sapiens, UniProt Q13882)
T17 construct: purchased Millipore, Inc. (KinaseProfiler service)
Protocol: as §1

VRK2 = biological target: T18, VRK2 (Homo sapiens, UniProt Q86Y07)
T18 construct: purchased Millipore, Inc. (KinaseProfiler service)
Protocol: as §1

CAMK2g = biological target: T19, CAMK2g (Homo sapiens, UniProt Q13555)
T19 construct: purchased Millipore (KinaseProfiler service)
Protocol: as §1

CDK6/cyclinD3 = biological target: T20, CDK6/cyclinD3 (Homo sapiens, UniProt Q00534)
T20 construct: purchased Millipore, Inc. (KinaseProfiler service)
Protocol: as §1

Fes = biological target: T21, Fes (Homo sapiens, UniProt P07332)
T21 construct: purchased Millipore, Inc. (KinaseProfiler service)
Protocol: as §1

eEF-2K = biological target: T22, eEF-2K (Homo sapiens, UniProt O00418)
T22 construct: purchased Millipore, Inc. (KinaseProfiler service)
Protocol: as §1

MARK2 = biological target: T23, MARK2 (Homo sapiens, UniProt Q7KZI7)
T23 construct: purchased Millipore, Inc. (KinaseProfiler service)
Protocol: as §1

Rse = biological target: T24, Rse (Homo sapiens, UniProt Q06418)
T24 construct: purchased Millipore, Inc. (KinaseProfiler service)
Protocol: as §1

PhKgamma2 = biological target: T25, PhKgamma2 (Homo sapiens, UniProt P15735)
T25 construct: purchased Millipore, Inc. (KinaseProfiler service)
Protocol: as §1

PDGFRalpha = biological target: T26, PDGFRalpha (Homo sapiens, UniProt P16234)
T26 construct: purchased Millipore, Inc. (KinaseProfiler service)
Protocol: as §1

Ret = biological target: T27, Ret (Homo sapiens, UniProt P07949)
T27 construct: purchased Millipore, Inc. (KinaseProfiler service)
Protocol: as §1

Tie2 = biological target: T28, Tie2 (Homo sapiens, UniProt Q02763)
T28 construct: purchased Millipore, Inc. (KinaseProfiler service)
Protocol: as §1

TAO2 = biological target: T29, TAO2 (Homo sapiens, UniProt Q9UL54)
T29 construct: purchased Millipore, Inc. (KinaseProfiler service)
Protocol: as §1

CK2alpha2 = biological target: T30, CK2alpha2 (Homo sapiens, UniProt P19784)
T30 construct: purchased Millipore, Inc. (KinaseProfiler service)
Protocol: as §1

MELK = biological target: T31, MELK (Homo sapiens, UniProt Q14680)
T31 construct: purchased Millipore, Inc. (KinaseProfiler service)
Protocol: as §1

PKD1 = biological target: T32, PKD1 (Homo sapiens, UniProt Q15139)
T32 construct: purchased Millipore, Inc. (KinaseProfiler service)
Protocol: as §1

TLK2 = biological target: T33, TLK2 (Homo sapiens, UniProt Q86UE8)
T33 construct: purchased Millipore, Inc. (KinaseProfiler service)
Protocol: as §1

Pim-1 = biological target: T34, Pim-1 (Homo sapiens, UniProt P11309)
T34 construct: purchased Millipore, Inc. (KinaseProfiler service)
Protocol: as §1

Flt3 = biological target: T35, Flt3 (Homo sapiens, UniProt P36888)
T35 construct: purchased Millipore, Inc. (KinaseProfiler service)
Protocol: as §1

ITK = biological target: T36, ITK (Homo sapiens, UniProt Q08881)
T36 construct: purchased Millipore, Inc. (KinaseProfiler service)
Protocol: as §1

CK2 = biological target: T37, CK2 (Homo sapiens, UniProt P68400)
T37 construct: purchased Millipore, Inc. (KinaseProfiler service)
Protocol: as §1

Met = biological target: T38, Met (Homo sapiens, UniProt P08581)
T38 construct: purchased Millipore, Inc. (KinaseProfiler service)
Protocol: as §1

Lck = biological target: T39, Lck (Homo sapiens, UniProt P06239)
T39 construct: purchased Millipore, Inc. (KinaseProfiler service)
Protocol: as §1

MSK1 = biological target: T40, MSK1 (Homo sapiens, UniProt O75582)
T40 construct: purchased Millipore, Inc. (KinaseProfiler service)
Protocol: as §1

TSSK2 = biological target: T41, TSSK2 (Homo sapiens, UniProt Q96PF2)
T41 construct: purchased Millipore, Inc. (KinaseProfiler service)
Protocol: as §1

T21 sequence (P07332 whole entry): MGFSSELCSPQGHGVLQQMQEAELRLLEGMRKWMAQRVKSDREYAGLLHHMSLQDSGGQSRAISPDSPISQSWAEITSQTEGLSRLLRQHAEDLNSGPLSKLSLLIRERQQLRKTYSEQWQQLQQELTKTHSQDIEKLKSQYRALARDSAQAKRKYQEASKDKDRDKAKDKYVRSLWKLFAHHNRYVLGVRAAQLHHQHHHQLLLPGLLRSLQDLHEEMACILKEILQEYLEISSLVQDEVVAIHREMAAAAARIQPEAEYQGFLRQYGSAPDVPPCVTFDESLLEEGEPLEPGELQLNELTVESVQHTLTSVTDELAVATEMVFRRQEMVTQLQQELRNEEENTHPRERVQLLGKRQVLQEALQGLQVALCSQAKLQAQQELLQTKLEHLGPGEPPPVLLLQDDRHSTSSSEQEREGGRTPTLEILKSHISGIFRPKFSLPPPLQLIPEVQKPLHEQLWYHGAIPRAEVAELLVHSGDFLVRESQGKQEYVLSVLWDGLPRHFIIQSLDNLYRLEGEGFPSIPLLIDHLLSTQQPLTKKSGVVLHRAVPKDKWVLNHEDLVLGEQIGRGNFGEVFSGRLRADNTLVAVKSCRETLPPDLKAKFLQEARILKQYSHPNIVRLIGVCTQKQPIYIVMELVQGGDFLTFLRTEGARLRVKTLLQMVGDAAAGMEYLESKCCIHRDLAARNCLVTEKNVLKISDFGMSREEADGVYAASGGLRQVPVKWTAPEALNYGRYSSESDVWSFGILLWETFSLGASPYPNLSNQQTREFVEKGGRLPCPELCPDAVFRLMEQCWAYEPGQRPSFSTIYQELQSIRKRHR
T27 sequence (P07949 29-1114): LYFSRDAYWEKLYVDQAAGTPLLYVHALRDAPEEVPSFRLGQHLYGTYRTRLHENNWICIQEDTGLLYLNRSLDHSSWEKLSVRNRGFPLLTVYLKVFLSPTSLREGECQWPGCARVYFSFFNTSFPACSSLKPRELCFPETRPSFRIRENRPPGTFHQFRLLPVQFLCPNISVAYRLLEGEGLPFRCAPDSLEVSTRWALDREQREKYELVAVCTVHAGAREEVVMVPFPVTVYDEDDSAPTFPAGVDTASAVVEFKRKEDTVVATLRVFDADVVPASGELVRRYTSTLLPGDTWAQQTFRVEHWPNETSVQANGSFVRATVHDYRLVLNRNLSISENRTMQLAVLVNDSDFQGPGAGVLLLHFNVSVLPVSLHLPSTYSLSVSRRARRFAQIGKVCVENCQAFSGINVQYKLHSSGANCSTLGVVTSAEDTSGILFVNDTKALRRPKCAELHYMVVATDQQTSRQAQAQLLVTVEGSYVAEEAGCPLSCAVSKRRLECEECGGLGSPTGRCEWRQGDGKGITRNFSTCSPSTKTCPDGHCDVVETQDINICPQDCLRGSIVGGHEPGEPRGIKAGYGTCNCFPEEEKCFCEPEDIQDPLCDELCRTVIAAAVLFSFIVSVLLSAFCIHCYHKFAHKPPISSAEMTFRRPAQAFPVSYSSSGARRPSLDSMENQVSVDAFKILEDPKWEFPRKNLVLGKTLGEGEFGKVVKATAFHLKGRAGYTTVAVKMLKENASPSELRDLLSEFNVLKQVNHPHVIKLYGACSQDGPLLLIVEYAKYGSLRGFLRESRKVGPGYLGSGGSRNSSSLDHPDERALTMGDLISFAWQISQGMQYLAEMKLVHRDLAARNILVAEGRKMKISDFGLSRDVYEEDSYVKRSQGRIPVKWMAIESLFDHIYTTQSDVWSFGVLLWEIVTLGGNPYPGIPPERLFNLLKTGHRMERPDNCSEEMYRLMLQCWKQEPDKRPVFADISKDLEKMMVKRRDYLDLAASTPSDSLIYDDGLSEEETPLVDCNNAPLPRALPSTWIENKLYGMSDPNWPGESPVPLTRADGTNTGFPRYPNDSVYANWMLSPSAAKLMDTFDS
T30 sequence (P19784 whole entry): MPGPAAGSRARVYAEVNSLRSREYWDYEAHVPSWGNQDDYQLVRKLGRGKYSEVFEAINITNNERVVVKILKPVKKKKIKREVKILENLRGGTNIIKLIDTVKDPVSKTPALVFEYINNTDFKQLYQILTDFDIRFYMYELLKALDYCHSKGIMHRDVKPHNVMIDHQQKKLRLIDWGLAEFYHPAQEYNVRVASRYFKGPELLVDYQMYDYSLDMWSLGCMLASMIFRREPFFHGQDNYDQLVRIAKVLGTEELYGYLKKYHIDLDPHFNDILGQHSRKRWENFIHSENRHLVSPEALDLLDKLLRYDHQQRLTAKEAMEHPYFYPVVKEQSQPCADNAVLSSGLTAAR
T34 sequence (P11309 whole entry): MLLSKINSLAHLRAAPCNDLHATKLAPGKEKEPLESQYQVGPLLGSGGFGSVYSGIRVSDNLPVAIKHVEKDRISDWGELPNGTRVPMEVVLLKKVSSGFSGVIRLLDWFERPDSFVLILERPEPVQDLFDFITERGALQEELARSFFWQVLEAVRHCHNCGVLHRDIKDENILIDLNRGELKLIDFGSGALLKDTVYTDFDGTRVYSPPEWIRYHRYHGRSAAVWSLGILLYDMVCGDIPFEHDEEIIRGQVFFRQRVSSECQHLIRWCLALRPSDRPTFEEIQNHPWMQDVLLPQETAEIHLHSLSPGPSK
T17 sequence (Q13882 whole entry): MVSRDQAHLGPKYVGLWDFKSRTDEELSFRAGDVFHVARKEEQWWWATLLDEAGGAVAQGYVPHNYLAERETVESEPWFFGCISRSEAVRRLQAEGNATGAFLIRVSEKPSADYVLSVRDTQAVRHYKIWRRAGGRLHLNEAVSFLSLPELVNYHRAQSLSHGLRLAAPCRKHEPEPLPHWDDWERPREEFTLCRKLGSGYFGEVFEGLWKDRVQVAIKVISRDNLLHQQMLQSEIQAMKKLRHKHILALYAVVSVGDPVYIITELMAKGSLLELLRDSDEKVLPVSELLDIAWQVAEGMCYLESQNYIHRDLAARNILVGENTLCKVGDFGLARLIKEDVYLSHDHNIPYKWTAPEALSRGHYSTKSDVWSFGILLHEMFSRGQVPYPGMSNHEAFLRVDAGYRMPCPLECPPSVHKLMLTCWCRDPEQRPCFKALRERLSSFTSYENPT
T15 sequence (Q9HBH9 whole entry): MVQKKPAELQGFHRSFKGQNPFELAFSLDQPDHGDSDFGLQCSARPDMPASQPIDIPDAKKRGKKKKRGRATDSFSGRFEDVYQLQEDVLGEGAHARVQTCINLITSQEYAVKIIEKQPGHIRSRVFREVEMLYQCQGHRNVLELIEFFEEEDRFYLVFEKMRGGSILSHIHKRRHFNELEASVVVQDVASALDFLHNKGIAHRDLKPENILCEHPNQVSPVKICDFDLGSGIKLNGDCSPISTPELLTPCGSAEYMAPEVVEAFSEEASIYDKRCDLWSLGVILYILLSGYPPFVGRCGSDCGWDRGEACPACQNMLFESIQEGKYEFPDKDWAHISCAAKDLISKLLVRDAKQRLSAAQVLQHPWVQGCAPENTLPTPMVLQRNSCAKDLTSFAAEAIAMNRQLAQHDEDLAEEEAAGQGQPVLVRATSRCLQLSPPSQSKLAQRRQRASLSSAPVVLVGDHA
T39 sequence (P06239 whole entry): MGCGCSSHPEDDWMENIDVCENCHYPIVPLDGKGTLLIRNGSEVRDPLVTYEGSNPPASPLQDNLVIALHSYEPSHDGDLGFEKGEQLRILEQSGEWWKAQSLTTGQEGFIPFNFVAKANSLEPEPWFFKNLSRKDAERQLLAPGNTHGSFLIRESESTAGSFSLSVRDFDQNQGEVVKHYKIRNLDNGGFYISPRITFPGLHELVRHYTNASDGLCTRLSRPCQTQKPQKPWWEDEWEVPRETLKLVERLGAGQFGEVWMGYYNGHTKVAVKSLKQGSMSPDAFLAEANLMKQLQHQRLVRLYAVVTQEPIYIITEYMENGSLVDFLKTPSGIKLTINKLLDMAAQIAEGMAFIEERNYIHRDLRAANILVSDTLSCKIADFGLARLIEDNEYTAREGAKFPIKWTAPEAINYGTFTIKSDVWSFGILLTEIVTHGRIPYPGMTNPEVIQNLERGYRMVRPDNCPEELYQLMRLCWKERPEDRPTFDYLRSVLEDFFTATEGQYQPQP
T4 sequence (Q9BXA7 whole entry): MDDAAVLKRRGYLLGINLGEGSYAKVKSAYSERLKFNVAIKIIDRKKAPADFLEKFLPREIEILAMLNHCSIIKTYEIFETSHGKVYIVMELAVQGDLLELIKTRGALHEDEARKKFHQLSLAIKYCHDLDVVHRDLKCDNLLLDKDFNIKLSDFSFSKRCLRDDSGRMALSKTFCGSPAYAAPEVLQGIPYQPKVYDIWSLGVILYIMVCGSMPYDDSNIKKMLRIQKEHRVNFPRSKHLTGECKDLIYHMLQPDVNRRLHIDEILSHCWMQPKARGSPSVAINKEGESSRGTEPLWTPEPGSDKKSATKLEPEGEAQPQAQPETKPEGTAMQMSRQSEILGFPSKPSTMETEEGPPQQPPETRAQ
T25 sequence (P15735 whole entry): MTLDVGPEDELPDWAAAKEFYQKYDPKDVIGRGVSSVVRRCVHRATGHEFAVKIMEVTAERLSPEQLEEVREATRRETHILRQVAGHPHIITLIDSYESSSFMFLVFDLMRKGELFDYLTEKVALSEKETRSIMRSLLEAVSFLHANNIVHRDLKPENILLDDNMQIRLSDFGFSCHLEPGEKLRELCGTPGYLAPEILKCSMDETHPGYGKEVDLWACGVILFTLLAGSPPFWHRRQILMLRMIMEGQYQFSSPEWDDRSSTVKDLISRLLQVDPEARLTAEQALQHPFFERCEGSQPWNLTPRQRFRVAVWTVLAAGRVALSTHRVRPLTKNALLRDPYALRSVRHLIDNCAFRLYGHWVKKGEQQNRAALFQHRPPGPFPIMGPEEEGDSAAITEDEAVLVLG

With `Cc1c(-c2cnn(C)c2)nn(-c2ccccc2)c1NC(=O)Nc1sc(C(F)(F)F)nc1-c1ccccc1` [Example 2, 1-(1′,4-dimethyl-1-phenyl-1H,1′H-[3,4′-bipyrazol]-5-yl)-3-(4-phenyl-2-(trifluoromethyl)thiazol-5-yl)urea] as the molecule, how does the “Avg POC” value (CK1gamma2) read?
The value was 110 POC.

And the “Avg POC” value (CDK5/p25)?
Its value is 104.5 POC.

What about the “Avg POC” value (PKCbetaII) of the same molecule?
The value was 95 POC.

What about the “Avg POC” value (TSSK1) of the same molecule?
Its value is 92 POC.

What about the “Avg POC” value (FGFR3) of the same molecule?
Its value is 117 POC.

What about the “Avg POC” value (TNK2) of the same molecule?
Its value is 142.5 POC.

And the “Avg POC” value (DAPK2)?
Its value is 103.5 POC.

What about the “Avg POC” value (TAK1) of the same molecule?
Its value is 95.5 POC.

What about the “Avg POC” value (Lyn) of the same molecule?
Its value is 103.5 POC.

What about the “Avg POC” value (PKCiota) of the same molecule?
The value was 67 POC.

What about the “Avg POC” value (EphA2) of the same molecule?
The value was 127 POC.

And the “Avg POC” value (ERK1)?
Its value is 96.5 POC.

And the “Avg POC” value (AMPK(A1/B1/G1))?
The value was 134.5 POC.

And the “Avg POC” value (HIPK3)?
Its value is 105.5 POC.

And the “Avg POC” value (MKNK2)?
Its value is 95 POC.

And the “Avg POC” value (JNK1alpha1)?
The value was 113 POC.

And the “Avg POC” value (PTK6)?
The value was 113.5 POC.

And the “Avg POC” value (VRK2)?
Its value is 91.5 POC.

What about the “Avg POC” value (CAMK2g) of the same molecule?
Its value is 103 POC.

What about the “Avg POC” value (CDK6/cyclinD3) of the same molecule?
The value was 119.5 POC.

What about the “Avg POC” value (Fes) of the same molecule?
Its value is 121.5 POC.

And the “Avg POC” value (eEF-2K)?
The value was 151.5 POC.

What about the “Avg POC” value (MARK2) of the same molecule?
Its value is 100.5 POC.

What about the “Avg POC” value (Rse) of the same molecule?
Its value is 108 POC.

What about the “Avg POC” value (PhKgamma2) of the same molecule?
Its value is 108 POC.

And the “Avg POC” value (PDGFRalpha)?
The value was 102.5 POC.

And the “Avg POC” value (Ret)?
Its value is 91.5 POC.

And the “Avg POC” value (Tie2)?
The value was 131.5 POC.

And the “Avg POC” value (TAO2)?
Its value is 123.5 POC.

And the “Avg POC” value (CK2alpha2)?
The value was 104 POC.

And the “Avg POC” value (MELK)?
The value was 99 POC.

And the “Avg POC” value (PKD1)?
Its value is 97.5 POC.

What about the “Avg POC” value (TLK2) of the same molecule?
The value was 98 POC.

And the “Avg POC” value (Pim-1)?
The value was 109.5 POC.

And the “Avg POC” value (Flt3)?
Its value is 98 POC.

And the “Avg POC” value (ITK)?
Its value is 125.5 POC.

What about the “Avg POC” value (CK2) of the same molecule?
The value was 95 POC.

And the “Avg POC” value (Met)?
The value was 120 POC.

And the “Avg POC” value (Lck)?
Its value is 103 POC.

And the “Avg POC” value (MSK1)?
Its value is 151 POC.

What about the “Avg POC” value (TSSK2) of the same molecule?
The value was 142.5 POC.
